US5403840A, “Inclusion complexes of N-ethoxycarbonyl 1-3-morpholino-sydnonimine or salts formed with cyclodextrin-derivatives, preparation thereof and pharmaceutical compositions containing the same” (Chinoin Gyogyszer-Es Vegyeszeti Termekek Gyar Rt., priority 1990, dated 1995)
≈ marks a conversion by molar mass, not a printed value.

Tests used:
[1] = Membrane permeation test, dialysis profile of Molsidomin-β-CD granule; assay type: physicochemical; conditions: Molsidomin 1 mg/ml or equivalent granule, 100% diffusion = 0.33 mg/ml
Experimental: Visking-type cellophane membrane (average pore diameter 24 angstroms) was used. Aqueous solutions of Molsidomin at a concentration of 1 and 2 mg/ml were put in the donor cell, while distilled water was placed in the receptor compartment of the membrane permeation cell apparatus.
Dialysis profile of Molsidomin-β-CD granule was examined using the same permeation cell as described above.
Molsidomin at a concentration of 1 mg/ml and equivalent amount of complex granule were used in the experiment
100% diffusion corresponding to 0.33 mg/ml Molsidomin concentration in the receptor cell.

[2] = Molsidomin alone, no cyclodextrin; 37 °C; donor 1 and 2 mg/ml
Experimental: Visking-type cellophane membrane (average pore diameter 24 angstroms) was used. Aqueous solutions of Molsidomin at a concentration of 1 and 2 mg/ml were put in the donor cell, while distilled water was placed in the receptor compartment of the membrane permeation cell apparatus. The solutions were stirred by magnetic stirrers and were kept at 37+1° C. At appropriate time intervals samples were pipetted from the receptor solutions and concentration of Molsidomin permeated from the donor cell was measured by UV-spectrophotometry. The test was repeated in the presence of different cyclodextrins at different concentrations in the donor cell compartment.

[3] = 25° C.; cited from earlier work
[4] = pH value of 5-7; cited from earlier work
[5] = oral; cited from earlier work
angina pectoris = conditions: cited from earlier work
[6] = percutaneous, cited from earlier work
[7] = compared to the organic nitrates; cited from earlier work

Concentration of Molsidomin in the receptor cell ([1]; 1 hour): 200 µg/mL
Concentration of Molsidomin in the receptor cell ([1]; 2 hours): 290 µg/mL
Concentration of Molsidomin in the receptor cell ([1]; 3 hours): 320 µg/mL
Concentration of Molsidomin in the receptor cell ([1]; 4 hours): 340 µg/mL
Diffusion half life (T 50%) of Molsidomin [2]: 1.0 h
SMILES: CCOC(=O)[N-]c1cn(N2CCOCC2)n[o+]1 [Molsidomin, N-ethoxycarbonyl-3-morpholino-sydnonimine]
solubility in water [3]: 18 mg/mL (≈ 74.3 mM)
stability in water [4]: stable
absorption along the whole Gi-tract [5]: fairly absorbed
bioavailability [5]: satisfactory
duration of effect compared to the organic nitrates (angina pectoris; compared to the organic nitrates): more lasting
duration of effect of oral preparation (angina pectoris; oral, 2 mg of the active ingredient): 3 to 5 h
bioavailability through the skin ([6]; Molsidomin itself): 4%
resorption through the skin ([6]; Molsidomin itself): resorbed slowly and to a small extent
resorption of Molsidomin relative to propylene-glycol [6]: of similar extent, and of similar quantity
habit forming [7]: does not become habit forming
headaches [7]: rarely induces headaches which are also less severe
side-effects [7]: less side-effects
